Tested on: recombinant NL4-3 virus (Renilla luciferase in nef, Gag P373S)
Test: HIV cell culture assay (luciferase reporter, MT-2 cells)
Type: cell-based, HIV-1
Details: Renilla, NL43, MT-2 cells infected for 4-5 days with NLRluc recombinants; luciferase activity; serial dilutions of inhibitor
Procedure: MT-2 cells and 293T cells were obtained from the NIH AIDS Research and Reference Reagent Program. MT-2 cells were propagated in RPMI 1640 media supplemented with 10% heat inactivated fetal bovine serum, […]. The 293T cells were propagated in DMEM media supplemented with 10% heat inactivated fetal bovine serum (FBS), 100 units/ml penicillin G and 100 µg/ml streptomycin. The proviral DNA clone of NL4-3 was obtained from the NIH AIDS Research and Reference Reagent Program. A recombinant NL4-3 virus, in which a section of the nef gene from NL4-3 was replaced with the Renilla luciferase gene, was used as a reference virus. In addition, residue Gag P373 was converted to P373S. Briefly, the recombinant virus was prepared by transfection of the altered proviral clone of NL4-3. Transfections were performed in 293T cells using LipofectAMINE PLUS from Invitrogen (Carlsbad, Calif.), according to manufacturer's instruction. The virus was titered in MT-2 cells using luciferase enzyme activity as a marker. Luciferase was quantitated using the Dual Luciferase kit from Promega (Madison, Wis.), with modifications to the manufacturer's protocol. The diluted Passive Lysis solution was pre-mixed with the re-suspended Luciferase Assay Reagent and the re-suspended Stop & Glo Substrate (2:1:1 ratio). Fifty (50) μL of the mixture was added to each aspirated well on assay plates and luciferase activity was measured immediately on a Wallac TriLux (Perkin-Elmer). Antiviral activities of inhibitors toward the recombinant virus were quantified by measuring luciferase activity in cells infected for 4-5 days with NLRluc recombinants in the presence serial dilutions of the inhibitor.

Q: Which EC50 does the source give for `C=C(CN(C)CCN(C)C)[C@@H]1CC[C@]2(C(=O)O)CC[C@]3(C)[C@H](CC[C@@H]4[C@@]5(C)CC=C(c6ccc(C(=O)O)cc6)C(C)(C)[C@@H]5CC[C@]43C)[C@@H]12` [Example 4, (1R,3aS,5aR,5bR,7aR,11aS,11bR,13aR,13bS)-9-(4-carboxyphenyl)-1-(3-((2-(dimethylamino)ethyl)(methyl)amino)prop-1-en-2-yl)-5a,5b,8,8,11a-pentamethyl-2,3,3a,4,5,5a,5b,6,7,7a,8,11,11a,11b,12,13,13a,13b-octadecahydro-1H-cyclopenta[a]chrysene-3a-carboxylic acid] here?
A: 1.42 nM

Q: For `C=C(CNCCN(C)C)[C@@H]1CC[C@]2(C(=O)O)CC[C@]3(C)[C@H](CC[C@@H]4[C@@]5(C)CC=C(c6ccc(C(=O)O)cc6)C(C)(C)[C@@H]5CC[C@]43C)[C@@H]12` [Example 5, (1R,3aS,5aR,5bR,7aR,11aS,11bR,13aR,13bS)-9-(4-carboxyphenyl)-1-(3-(2-(dimethylamino)ethylamino)prop-1-en-2-yl)-5a,5b,8,8,11a-pentamethyl-2,3,3a,4,5,5a,5b,6,7,7a,8,11,11a,11b,12,13,13a,13b-octadecahydro-1H-cyclopenta[a]chrysene-3a-carboxylic acid], which EC50 is on record?
A: 160 nM

Q: For `C=C(CNCCC(=O)O)[C@@H]1CC[C@]2(C(=O)O)CC[C@]3(C)[C@H](CC[C@@H]4[C@@]5(C)CC=C(c6ccc(C(=O)O)cc6)C(C)(C)[C@@H]5CC[C@]43C)[C@@H]12` [Example 6, (1R,3aS,5aR,5bR,7aR,11aS,11bR,13aR,13bS)-1-(3-(2-carboxyethylamino)prop-1-en-2-yl)-9-(4-carboxyphenyl)-5a,5b,8,8,11a-pentamethyl-2,3,3a,4,5,5a,5b,6,7,7a,8,11,11a,11b,12,13,13a,13b-octadecahydro-1H-cyclopenta[a]chrysene-3a-carboxylic acid], which EC50 is on record?
A: 4000 nM

Q: For `C=C(CN(C)C)[C@@H]1CC[C@]2(C(=O)NCCN(C)C)CC[C@]3(C)[C@H](CC[C@@H]4[C@@]5(C)CC=C(c6ccc(C(=O)O)cc6)C(C)(C)[C@@H]5CC[C@]43C)[C@@H]12` [Example 7, 4-((1R,3aS,5aR,5bR,7aR,11aS,11bR,13aR,13bS)-3a-(2-(dimethylamino)ethylcarbamoyl)-1-(3-(dimethylamino)prop-1-en-2-yl)-5a,5b,8,8,11a-pentamethyl-2,3,3a,4,5,5a,5b,6,7,7a,8,11,11a,11b,12,13,13a,13b-octadecahydro-1H-cyclopenta[a]chrysen-9-yl)benzoic acid], which EC50 is on record?
A: 0.54 nM

Q: Which EC50 does the source give for `C=C(CN(C)CCN(C)C)[C@@H]1CC[C@]2(C(=O)NCCN(C)C)CC[C@]3(C)[C@H](CC[C@@H]4[C@@]5(C)CC=C(c6ccc(C(=O)O)cc6)C(C)(C)[C@@H]5CC[C@]43C)[C@@H]12` [Example 8, 4-((1R,3aS,5aR,5bR,7aR,11aS,11bR,13aR,13bS)-1-(3-((2-(dimethylamino)ethyl)(methyl)amino)prop-1-en-2-yl)-3a-(2-(dimethylamino)ethylcarbamoyl)-5a,5b,8,8,11a-pentamethyl-2,3,3a,4,5,5a,5b,6,7,7a,8,11,11a,11b,12,13,13a,13b-octadecahydro-1H-cyclopenta[a]chrysen-9-yl)benzoic acid] here?
A: 1.49 nM

Q: Which EC50 does the source give for `C=C(CNCCN(C)C)[C@@H]1CC[C@]2(C(=O)NCCC(=O)O)CC[C@]3(C)[C@H](CC[C@@H]4[C@@]5(C)CC=C(c6ccc(C(=O)O)cc6)C(C)(C)[C@@H]5CC[C@]43C)[C@@H]12` [Example 9, 4-((1R,3aS,5aR,5bR,7aR,11aS,11bR,13aR,13bS)-3a-(2-carboxyethylcarbamoyl)-1-(3-(2-(dimethylamino)ethylamino)prop-1-en-2-yl)-5a,5b,8,8,11a-pentamethyl-2,3,3a,4,5,5a,5b,6,7,7a,8,11,11a,11b,12,13,13a,13b-octadecahydro-1H-cyclopenta[a]chrysen-9-yl)benzoic acid] here?
A: 90 nM

Q: How did the EC50 turn out when `C=C(CN(C)C(=O)CCC(=O)O)[C@@H]1CC[C@]2(C(=O)NCCC(=O)O)CC[C@]3(C)[C@H](CC[C@@H]4[C@@]5(C)CC=C(c6ccc(C(=O)O)cc6)C(C)(C)[C@@H]5CC[C@]43C)[C@@H]12` [Example 10, 4-((1R,3aS,5aR,5bR,7aR,11aS,11bR,13aR,13bS)-1-(3-(3-carboxy-N-methylpropanamido)prop-1-en-2-yl)-3a-(2-carboxyethylcarbamoyl)-5a,5b,8,8,11a-pentamethyl-2,3,3a,4,5,5a,5b,6,7,7a,8,11,11a,11b,12,13,13a,13b-octadecahydro-1H-cyclopenta[a]chrysen-9-yl)benzoic acid] was run?
A: 2000 nM

Q: With `C=C(COCCN1CCOCC1)[C@@H]1CC[C@]2(C(=O)O)CC[C@]3(C)[C@H](CC[C@@H]4[C@@]5(C)CC=C(c6ccc(C(=O)O)cc6)C(C)(C)[C@@H]5CC[C@]43C)[C@@H]12` [Example 11, (1R,3aS,5aR,5bR,7aR,11aS,11bR,13aR,13bS)-9-(4-carboxyphenyl)-5a,5b,8,8,11a-pentamethyl-1-(3-(2-morpholinoethoxy)prop-1-en-2-yl)-2,3,3a,4,5,5a,5b,6,7,7a,8,11,11a,11b,12,13,13a,13b-octadecahydro-1H-cyclopenta[a]chrysene-3a-carboxylic acid] as the compound, how does the EC50 read?
A: 20 nM

Q: For `C=C(COCCN1CCOCC1)[C@@H]1CC[C@]2(C(=O)NCCC(=O)O)CC[C@]3(C)[C@H](CC[C@@H]4[C@@]5(C)CC=C(c6ccc(C(=O)O)cc6)C(C)(C)[C@@H]5CC[C@]43C)[C@@H]12` [Example 12, 4-((1R,3aS,5aR,5bR,7aR,11aS,11bR,13aR,13bS)-3a-(2-carboxyethylcarbamoyl)-5a,5b,8,8,11a-pentamethyl-1-(3-(2-morpholinoethoxy)prop-1-en-2-yl)-2,3,3a,4,5,5a,5b,6,7,7a,8,11,11a,11b,12,13,13a,13b-octadecahydro-1H-cyclopenta[a]chrysen-9-yl)benzoic acid], which EC50 is on record?
A: 140 nM

Q: `C=C(COCCN1CCOCC1)[C@@H]1CC[C@]2(C(=O)NCCNCCO)CC[C@]3(C)[C@H](CC[C@@H]4[C@@]5(C)CC=C(c6ccc(C(=O)O)cc6)C(C)(C)[C@@H]5CC[C@]43C)[C@@H]12` [Example 13, 4-((1R,3aS,5aR,5bR,7aR,11aS,11bR,13aR,13bS)-3a-(2-(2-hydroxyethylamino)ethylcarbamoyl)-5a,5b,8,8,11a-pentamethyl-1-(3-(2-morpholinoethoxy)prop-1-en-2-yl)-2,3,3a,4,5,5a,5b,6,7,7a,8,11,11a,11b,12,13,13a,13b-octadecahydro-1H-cyclopenta[a]chrysen-9-yl)benzoic acid] was tested. Which EC50 did it give?
A: 1.97 nM

Q: With `C=C(COCCN1CCOCC1)[C@@H]1CC[C@]2(C(=O)NCCN(C)C)CC[C@]3(C)[C@H](CC[C@@H]4[C@@]5(C)CC=C(c6ccc(C(=O)O)cc6)C(C)(C)[C@@H]5CC[C@]43C)[C@@H]12` [Example 14, 4-((1R,3aS,5aR,5bR,7aR,11aS,11bR,13aR,13bS)-3a-(2-(dimethylamino)ethylcarbamoyl)-5a,5b,8,8,11a-pentamethyl-1-(3-(2-morpholinoethoxy)prop-1-en-2-yl)-2,3,3a,4,5,5a,5b,6,7,7a,8,11,11a,11b,12,13,13a,13b-octadecahydro-1H-cyclopenta[a]chrysen-9-yl)benzoic acid] as the compound, how does the EC50 read?
A: 0.72 nM

Q: With `C=C(COCCN1CCOCC1)[C@@H]1CC[C@]2(C(=O)NCCCN3CCCC3=O)CC[C@]3(C)[C@H](CC[C@@H]4[C@@]5(C)CC=C(c6ccc(C(=O)O)cc6)C(C)(C)[C@@H]5CC[C@]43C)[C@@H]12` [Example 15, 4-((1R,3aS,5aR,5bR,7aR,11aS,11bR,13aR,13bS)-5a,5b,8,8,11a-pentamethyl-1-(3-(2-morpholinoethoxy)prop-1-en-2-yl)-3a-(3-(2-oxopyrrolidin-1-yl)propylcarbamoyl)-2,3,3a,4,5,5a,5b,6,7,7a,8,11,11a,11b,12,13,13a,13b-octadecahydro-1H-cyclopenta[a]chrysen-9-yl)benzoic acid] as the compound, how does the EC50 read?
A: 1.83 nM

Q: `C=C(COCCN1CCOCC1)[C@@H]1CC[C@]2(C(=O)NCCCn3ccnc3)CC[C@]3(C)[C@H](CC[C@@H]4[C@@]5(C)CC=C(c6ccc(C(=O)O)cc6)C(C)(C)[C@@H]5CC[C@]43C)[C@@H]12` [Example 16, 4-((1R,3aS,5aR,5bR,7aR,11aS,11bR,13aR,13bS)-3a-(3-(1H-imidazol-1-yl)propylcarbamoyl)-5a,5b,8,8,11a-pentamethyl-1-(3-(2-morpholinoethoxy)prop-1-en-2-yl)-2,3,3a,4,5,5a,5b,6,7,7a,8,11,11a,11b,12,13,13a,13b-octadecahydro-1H-cyclopenta[a]chrysen-9-yl)benzoic acid] was tested. Which EC50 did it give?
A: 2.48 nM

Q: How did the EC50 turn out when `C=C(COCCN1CCOCC1)[C@@H]1CC[C@]2(C(=O)NCCNCC(=O)O)CC[C@]3(C)[C@H](CC[C@@H]4[C@@]5(C)CC=C(c6ccc(C(=O)O)cc6)C(C)(C)[C@@H]5CC[C@]43C)[C@@H]12` [Example 17, 4-((1R,3aS,5aR,5bR,7aR,11aS,11bR,13aR,13bS)-3a-(2-(carboxymethylamino)ethylcarbamoyl)-5a,5b,8,8,11a-pentamethyl-1-(3-(2-morpholinoethoxy)prop-1-en-2-yl)-2,3,3a,4,5,5a,5b,6,7,7a,8,11,11a,11b,12,13,13a,13b-octadecahydro-1H-cyclopenta[a]chrysen-9-yl)benzoic acid] was run?
A: 80 nM

Source: patent US20140221361A1, “C-19 MODIFIED TRITERPENOIDS WITH HIV MATURATION INHIBITORY ACTIVITY” (priority 2013, published 2014)
